Reference: ChEMBL document CHEMBL5143557, “Synthesis and biological evaluation of 3β-O-neoglycosides of caudatin and its analogues as potential anticancer agents” (Bioorg Med Chem, 2022)

What was measured:
HepG2 [1] = experiment: Induction of apoptosis in human HepG2 cells assessed as late apoptotic cells at 20 uM measured after 48 hrs by annexin-V and PI staining based flow cytometry (reference value: 4.52%); format: functional
HepG2 [2] = experiment: Induction of apoptosis in human HepG2 cells assessed as live cells at 20 uM measured after 48 hrs by annexin-V and PI staining based flow cytometry (reference value: 91%); format: functional
HepG2 [3] = experiment: Cell cycle arrest in human HepG2 cells assessed as number of cells at G1 phase at 5 uM after 48 hrs by flow cytometry (reference value: 57.68%); format: functional
HepG2 [4] = experiment: Induction of apoptosis in human HepG2 cells assessed as early apoptotic cells at 10 uM measured after 48 hrs by annexin-V and PI staining based flow cytometry (reference value: 4.11%); format: functional
HepG2 [5] = experiment: Induction of apoptosis in human HepG2 cells assessed as early apoptotic cells at 20 uM measured after 48 hrs by annexin-V and PI staining based flow cytometry (reference value: 4.11%); format: functional
HeLa = experiment: Antiproliferative activity against human HeLa cells after 48 hrs by MTT assay; format: functional, cell-based
HepG2 [6] = experiment: Induction of apoptosis in human HepG2 cells assessed as necrotic cells at 5 uM measured after 48 hrs by annexin-V and PI staining based flow cytometry (reference value: 0.363%); format: functional
HepG2 [7] = experiment: Induction of apoptosis in human HepG2 cells assessed as live cells at 10 uM measured after 48 hrs by annexin-V and PI staining based flow cytometry (reference value: 91%); format: functional
HepG2 [8] = experiment: Induction of apoptosis in human HepG2 cells assessed as live cells at 5 uM measured after 48 hrs by annexin-V and PI staining based flow cytometry (reference value: 91%); format: functional
MCF7 = experiment: Antiproliferative activity against human MCF7 cells after 48 hrs by MTT assay; format: functional, cell-based; details: MCF7, 48 h
HepG2 [9] = experiment: Cell cycle arrest in human HepG2 cells assessed as number of cells at S phase at 5 uM after 48 hrs by flow cytometry (reference value: 24.31%); format: functional
HepG2 [10] = experiment: Cell cycle arrest in human HepG2 cells assessed as number of cells at S phase at 20 uM after 48 hrs by flow cytometry (reference value: 24.31%); format: functional
HepG2 [11] = experiment: Cell cycle arrest in human HepG2 cells assessed as number of cells at G2 phase at 5 uM after 48 hrs by flow cytometry (reference value: 16.28%); format: functional
HepG2 [12] = experiment: Induction of apoptosis in human HepG2 cells assessed as late apoptotic cells at 5 uM measured after 48 hrs by annexin-V and PI staining based flow cytometry (reference value: 4.52%); format: functional
HepG2 [13] = experiment: Induction of apoptosis in human HepG2 cells assessed as early apoptotic cells at 5 uM measured after 48 hrs by annexin-V and PI staining based flow cytometry (reference value: 4.11%); format: functional
HCT-116 = experiment: Antiproliferative activity against human HCT-116 cells after 48 hrs by MTT assay; format: functional, cell-based; details: HCT-116, 48 h
HepG2 [14] = experiment: Induction of apoptosis in human HepG2 cells assessed as necrotic cells at 20 uM measured after 48 hrs by annexin-V and PI staining based flow cytometry (reference value: 0.363%); format: functional
HepG2 [15] = experiment: Cell cycle arrest in human HepG2 cells assessed as number of cells at G1 phase at 10 uM after 48 hrs by flow cytometry (reference value: 57.68%); format: functional
HepG2 [16] = experiment: Cell cycle arrest in human HepG2 cells assessed as number of cells at G2 phase at 20 uM after 48 hrs by flow cytometry (reference value: 16.28%); format: functional
HepG2 [17] = experiment: Cell cycle arrest in human HepG2 cells assessed as number of cells at S phase at 10 uM after 48 hrs by flow cytometry (reference value: 24.31%); format: functional
HepG2 [18] = experiment: Induction of apoptosis in human HepG2 cells assessed as late apoptotic cells at 10 uM measured after 48 hrs by annexin-V and PI staining based flow cytometry (reference value: 4.52%); format: functional
HepG2 [19] = experiment: Antiproliferative activity against human HepG2 cells after 48 hrs by MTT assay; format: functional, cell-based; details: HepG2, 48 h
HepG2 [20] = experiment: Cell cycle arrest in human HepG2 cells assessed as number of cells at G1 phase at 20 uM after 48 hrs by flow cytometry (reference value: 57.68%); format: functional
HepG2 [21] = experiment: Cell cycle arrest in human HepG2 cells assessed as number of cells at G2 phase at 10 uM after 48 hrs by flow cytometry (reference value: 16.28%); format: functional
HepG2 [22] = experiment: Induction of apoptosis in human HepG2 cells assessed as necrotic cells at 10 uM measured after 48 hrs by annexin-V and PI staining based flow cytometry (reference value: 0.363%); format: functional

CC(=O)OC[C@@H]1O[C@H](O[C@H]2CC[C@@]3(C)C(=CC[C@]4(O)[C@@H]3C[C@@H](OC(=O)/C=C(\C)C(C)C)[C@@]3(C)[C@]4(O)CC[C@@]3(O)C(C)=O)C2)[C@@H](OC(C)=O)[C@H](OC(C)=O)[C@H]1OC(C)=O
Activity (HepG2 [1]): 5.34%
Activity (HepG2 [2]): 18%
Activity (HepG2 [3]): 51.38%
Activity (HepG2 [4]): 35.6%
Activity (HepG2 [5]): 76.5%
IC50 (HeLa): 7.6 µM
Activity (HepG2 [6]): 0.068%
Activity (HepG2 [7]): 57%
Activity (HepG2 [8]): 83.5%
IC50 (MCF7): 9.04 µM
Activity (HepG2 [9]): 28.72%
Activity (HepG2 [10]): 38.82%
Activity (HepG2 [11]): 16.95%
Activity (HepG2 [12]): 5.07%
Activity (HepG2 [13]): 11.3%
IC50 (HCT-116): 5.64 µM
Activity (HepG2 [14]): 0.184%
Activity (HepG2 [15]): 46.89%
Activity (HepG2 [16]): 15.99%
Activity (HepG2 [17]): 34.6%
Activity (HepG2 [18]): 7.26%
IC50 (HepG2 [19]): 3.11 µM
Activity (HepG2 [20]): 41.76%
Activity (HepG2 [21]): 15.75%
Activity (HepG2 [22]): 0.096%
